# Data as given in US11617748B2, “Meclozine derivatives and diclazuril derivatives for use in the prevention and/or the treatment of disorders associated to the inflammation induced by P. acnes” (priority 2016, dated 2023).
# Test system: PPARγ
# Test: Western blot of PPARγ expression in P. acnes-stimulated HaCaT cells
# Format: cell-based, human
# Details: 25 μM, 24 h pre-treatment
# Method: Western Blot analysis. Whole cell protein extracts (25 μg) were separated by electrophoresis (LDS-PAGE) under denaturing conditions with NuPAGE Novex 4-12% Bis-Tris gel (1 mm, 12 wells, Invitrogen, UK) and proteins were transferred onto nitrocellulose membranes and saturated in 20 ml of saturation buffer consisting of TBS 1× (Tris Buffered Saline) containing 200 mM Tris, 1.4 M NaCl (pH 7.6), 5% no fat milk, 0.1% Tween 20 for 1 h. […] After washing to remove unbound antibodies, bound primary antibodies were detected by incubation for 1 h using secondary antibody against rabbit- and mouse IgG (Santa Cruz Biotechnology, SC-2357, 1:5000 and SC-2005, 1:5000, respectively). Unbound material was removed by washing and peroxidase activity was detected in a chemiluminescence assay (WesternBright ECL, Advansta, Menlo Park, USA). […]
smiles,measurement,value
"N#CC(c1ccc(Cl)cc1)c1c(Cl)cc(-n2ncc(=O)[nH]c2=O)cc1Cl (stereo not shown) [diclazuril, Diclazuril]",expression of PPARγ,no change
